Here are results for ten compounds from ChEMBL document CHEMBL4373723 (J Med Chem, 2019).

Test [1] has as its target T1, Frizzled-7 (Homo sapiens, UniProt O75084). The conditions noted are these: CHO.
Description: Binding affinity to recombinant human Frizzled-7 (Gln33 to Leu185 residues)/human IgG1 chimeric protein expressed in CHO cells assessed as association rate constant by SPR assay
The target of test [2] is T1, Frizzled-7. As to the kind of experiment: biochemical. It is filed as cell-based, CHO. The conditions noted are these: for pKd: read-out: Kd.
In test [3] the target is T1, Frizzled-7. The class given is cell-based. Particulars: cho.

pKd: −log10 of the molar value. The source made the active and inactive calls. No cut-off for these calls is given here. Bridge positions count the residues as written; N and C are the ends. Square brackets hold non-standard residues; d marks the D form. Peptide text beside a SMILES is read from it. I, II: the chains in the order shown. Phe(3,4-Cl2) = N[C@@H](Cc1ccc(Cl)c(Cl)c1)C(=O)O; Phe(2,4-Cl2) = N[C@@H](Cc1ccc(Cl)cc1Cl)C(=O)O

Take `CSCC[C@H](NC(=O)[C@@H](CC1CCCC1)NC(=O)[C@H](Cc1cnc[nH]1)NC(=O)[C@H](CSSC[C@H](NC(=O)[C@H](Cc1c[nH]c2ccccc12)NC(=O)[C@H](Cc1ccccc1)NC(=O)[C@H](CCC(=O)O)NC(=O)[C@H](CC(C)C)NC(=O)[C@H](CC(=O)O)NC(=O)[C@H](CC(=O)O)NC(=O)[C@H](CO)NC(C)=O)C(=O)N[C@@H](Cc1cnc[nH]1)C(=O)N[C@H](CC1CCCC1)C(=O)N[C@@H](CCSC)C(=O)N[C@@H](Cc1ccc(O)cc1)C(N)=O)NC(=O)[C@H](Cc1c[nH]c2ccccc12)NC(=O)[C@H](Cc1ccccc1)NC(=O)[C@H](CCC(=O)O)NC(=O)[C@H](CC(C)C)NC(=O)[C@H](CC(=O)O)NC(=O)[C@H](CC(=O)O)NC(=O)[C@H](CO)NC(C)=O)C(=O)N[C@@H](Cc1ccc(O)cc1)C(N)=O`: the Ka at Frizzled-7 [1] worked out at 30.4 ×10⁵ /M/s. In addition, the pKd (usually −log10 of the Kd, conventionally taken in molar units) at Frizzled-7 [2] (cho) is 7.84. Further, the Kd at Frizzled-7 [3] is 44.1 ×10⁻³ /s.

At Frizzled-7 [1], `CSCC[C@H](NC(=O)[C@@H](CC1CC1)NC(=O)[C@H](Cc1cnc[nH]1)NC(=O)[C@H](CSSC[C@H](NC(=O)[C@H](Cc1c[nH]c2ccccc12)NC(=O)[C@H](Cc1ccccc1)NC(=O)[C@H](CCC(=O)O)NC(=O)[C@H](CC(C)C)NC(=O)[C@H](CC(=O)O)NC(=O)[C@H](CC(=O)O)NC(=O)[C@H](CO)NC(C)=O)C(=O)N[C@@H](Cc1cnc[nH]1)C(=O)N[C@H](CC1CC1)C(=O)N[C@@H](CCSC)C(=O)N[C@@H](Cc1ccc(O)cc1)C(N)=O)NC(=O)[C@H](Cc1c[nH]c2ccccc12)NC(=O)[C@H](Cc1ccccc1)NC(=O)[C@H](CCC(=O)O)NC(=O)[C@H](CC(C)C)NC(=O)[C@H](CC(=O)O)NC(=O)[C@H](CC(=O)O)NC(=O)[C@H](CO)NC(C)=O)C(=O)N[C@@H](Cc1ccc(O)cc1)C(N)=O` displayed a Ka of 80.4 ×10⁵ /M/s. In addition, on Frizzled-7 [2] (cho), the pKd is 9.80. The Kd at Frizzled-7 [3] is 1.26 ×10⁻³ /s.

The compound `CSCC[C@H](NC(=O)[C@@H](CC1CCC1)NC(=O)[C@H](Cc1cnc[nH]1)NC(=O)[C@H](CSSC[C@H](NC(=O)[C@H](Cc1c[nH]c2ccccc12)NC(=O)[C@H](Cc1ccccc1)NC(=O)[C@H](CCC(=O)O)NC(=O)[C@H](CC(C)C)NC(=O)[C@H](CC(=O)O)NC(=O)[C@H](CC(=O)O)NC(=O)[C@H](CO)NC(C)=O)C(=O)N[C@@H](Cc1cnc[nH]1)C(=O)N[C@H](CC1CCC1)C(=O)N[C@@H](CCSC)C(=O)N[C@@H](Cc1ccc(O)cc1)C(N)=O)NC(=O)[C@H](Cc1c[nH]c2ccccc12)NC(=O)[C@H](Cc1ccccc1)NC(=O)[C@H](CCC(=O)O)NC(=O)[C@H](CC(C)C)NC(=O)[C@H](CC(=O)O)NC(=O)[C@H](CC(=O)O)NC(=O)[C@H](CO)NC(C)=O)C(=O)N[C@@H](Cc1ccc(O)cc1)C(N)=O` displayed a Ka at Frizzled-7 [1] of 53 ×10⁵ /M/s. Further, the pKd on Frizzled-7 [2] (cho) was 9.40. Moreover, on Frizzled-7 [3], the Kd is 2.13 ×10⁻³ /s.

With `CSCC[C@H](NC(=O)[C@@H](CC(C)(C)C)NC(=O)[C@H](Cc1cnc[nH]1)NC(=O)[C@H](CSSC[C@H](NC(=O)[C@H](Cc1c[nH]c2ccccc12)NC(=O)[C@H](Cc1ccccc1)NC(=O)[C@H](CCC(=O)O)NC(=O)[C@H](CC(C)C)NC(=O)[C@H](CC(=O)O)NC(=O)[C@H](CC(=O)O)NC(=O)[C@H](CO)NC(C)=O)C(=O)N[C@@H](Cc1cnc[nH]1)C(=O)N[C@H](CC(C)(C)C)C(=O)N[C@@H](CCSC)C(=O)N[C@@H](Cc1ccc(O)cc1)C(N)=O)NC(=O)[C@H](Cc1c[nH]c2ccccc12)NC(=O)[C@H](Cc1ccccc1)NC(=O)[C@H](CCC(=O)O)NC(=O)[C@H](CC(C)C)NC(=O)[C@H](CC(=O)O)NC(=O)[C@H](CC(=O)O)NC(=O)[C@H](CO)NC(C)=O)C(=O)N[C@@H](Cc1ccc(O)cc1)C(N)=O`, the Ka at Frizzled-7 [1] was 68.8 ×10⁵ /M/s. For the same compound, at Frizzled-7 [2] (cho), the negative-log Kd (pKd) was 9.49. This compound displayed a Kd on Frizzled-7 [3] of 2.16 ×10⁻³ /s.

For `CSCC[C@H](NC(=O)[C@@H](NC(=O)[C@H](Cc1cnc[nH]1)NC(=O)[C@H](CO)NC(=O)[C@H](Cc1c[nH]c2ccccc12)NC(=O)[C@H](Cc1ccccc1)NC(=O)[C@H](CCC(=O)O)NC(=O)[C@H](CC(C)C)NC(=O)[C@H](CC(=O)O)NC(=O)[C@H](CC(=O)O)NC(=O)[C@H](CO)NC(=O)[C@@H]1CCCN1C(=O)[C@H](CC(C)C)NC(C)=O)C(C)C)C(=O)N[C@@H](Cc1ccc(O)cc1)C(N)=O` (Ac-LPSDDLEFWSHVMY-NH2), the Ka entry at Frizzled-7 [1] was “inactive”. Also, the Kd entry at Frizzled-7 [2] (cho) and at Frizzled-7 [3] was “Not Active” in each case.

Turning to `CSCC[C@H](NC(=O)[C@@H](NC(=O)[C@H](Cc1cnc[nH]1)NC(=O)[C@H](CSSC[C@H](NC(=O)[C@H](Cc1c[nH]c2ccccc12)NC(=O)[C@H](Cc1ccccc1)NC(=O)[C@H](CCC(=O)O)NC(=O)[C@H](Cc1ccccc1)NC(=O)[C@H](CC(=O)O)NC(=O)[C@H](CC(=O)O)NC(=O)[C@H](CO)NC(C)=O)C(=O)N[C@@H](Cc1cnc[nH]1)C(=O)N[C@H](C(=O)N[C@@H](CCSC)C(=O)N[C@@H](Cc1ccc(O)cc1)C(N)=O)C(C)C)NC(=O)[C@H](Cc1c[nH]c2ccccc12)NC(=O)[C@H](Cc1ccccc1)NC(=O)[C@H](CCC(=O)O)NC(=O)[C@H](Cc1ccccc1)NC(=O)[C@H](CC(=O)O)NC(=O)[C@H](CC(=O)O)NC(=O)[C@H](CO)NC(C)=O)C(C)C)C(=O)N[C@@H](Cc1ccc(O)cc1)C(N)=O` (I: Ac-SDDFEFWCHVMY-NH2 / II: Ac-SDDFEFWCHVMY-NH2; disulfide I:8-II:8), the Ka on Frizzled-7 [1] was determined as 5.3 ×10⁵ /M/s. For the same compound, the negative-log Kd (pKd) at Frizzled-7 [2] was 6.92. On Frizzled-7 [3], this compound had a Kd of 62.8 ×10⁻³ /s.

In turn, `CC[C@H](C)[C@H](NC(=O)[C@H](Cc1cnc[nH]1)NC(=O)[C@H](CSSC[C@H](NC(=O)[C@H](Cc1c[nH]c2ccccc12)NC(=O)[C@H](Cc1ccccc1)NC(=O)[C@H](CCC(=O)O)NC(=O)[C@H](CC(C)C)NC(=O)[C@H](CC(=O)O)NC(=O)[C@H](CC(=O)O)NC(=O)[C@H](CO)NC(C)=O)C(=O)N[C@@H](Cc1cnc[nH]1)C(=O)N[C@H](C(=O)N[C@@H](CCSC)C(=O)N[C@@H](Cc1ccc(O)cc1)C(N)=O)[C@@H](C)CC)NC(=O)[C@H](Cc1c[nH]c2ccccc12)NC(=O)[C@H](Cc1ccccc1)NC(=O)[C@H](CCC(=O)O)NC(=O)[C@H](CC(C)C)NC(=O)[C@H](CC(=O)O)NC(=O)[C@H](CC(=O)O)NC(=O)[C@H](CO)NC(C)=O)C(=O)N[C@@H](CCSC)C(=O)N[C@@H](Cc1ccc(O)cc1)C(N)=O` (I: Ac-SDDLEFWCHIMY-NH2 / II: Ac-SDDLEFWCHIMY-NH2; disulfide I:8-II:8) returned a Ka on Frizzled-7 [1] of 55.1 ×10⁵ /M/s. In addition, on Frizzled-7 [2], the pKd was 9.74. At Frizzled-7 [3], the Kd turned out to be 0.96 ×10⁻³ /s.

As for `CSCC[C@H](NC(=O)[C@H](CC(C)C)NC(=O)[C@H](Cc1cnc[nH]1)NC(=O)[C@H](CSSC[C@H](NC(=O)[C@H](Cc1c[nH]c2ccccc12)NC(=O)[C@H](Cc1ccccc1)NC(=O)[C@H](CCC(=O)O)NC(=O)[C@H](CC(C)C)NC(=O)[C@H](CC(=O)O)NC(=O)[C@H](CC(=O)O)NC(=O)[C@H](CO)NC(C)=O)C(=O)N[C@@H](Cc1cnc[nH]1)C(=O)N[C@@H](CC(C)C)C(=O)N[C@@H](CCSC)C(=O)N[C@@H](Cc1ccc(O)cc1)C(N)=O)NC(=O)[C@H](Cc1c[nH]c2ccccc12)NC(=O)[C@H](Cc1ccccc1)NC(=O)[C@H](CCC(=O)O)NC(=O)[C@H](CC(C)C)NC(=O)[C@H](CC(=O)O)NC(=O)[C@H](CC(=O)O)NC(=O)[C@H](CO)NC(C)=O)C(=O)N[C@@H](Cc1ccc(O)cc1)C(N)=O` (I: Ac-SDDLEFWCHLMY-NH2 / II: Ac-SDDLEFWCHLMY-NH2; disulfide I:8-II:8), the Ka on Frizzled-7 [1] was 67.2 ×10⁵ /M/s. Besides, the pKd on Frizzled-7 [2] was 9.55. On Frizzled-7 [3], this compound returned a Kd of 1.9 ×10⁻³ /s.

Turning to `CSCC[C@H](NC(=O)[C@@H](NC(=O)[C@H](Cc1cnc[nH]1)NC(=O)[C@H](CSSC[C@H](NC(=O)[C@H](Cc1c[nH]c2ccccc12)NC(=O)[C@H](Cc1ccccc1)NC(=O)[C@H](CCC(=O)O)NC(=O)[C@H](CC(C)C)NC(=O)[C@H](CC(=O)O)NC(=O)[C@H](CC(=O)O)NC(=O)[C@H](CO)NC(C)=O)C(=O)N[C@@H](Cc1cnc[nH]1)C(=O)N[C@H](C(=O)N[C@@H](CCSC)C(=O)N[C@@H](Cc1ccc(Cl)cc1Cl)C(N)=O)C(C)C)NC(=O)[C@H](Cc1c[nH]c2ccccc12)NC(=O)[C@H](Cc1ccccc1)NC(=O)[C@H](CCC(=O)O)NC(=O)[C@H](CC(C)C)NC(=O)[C@H](CC(=O)O)NC(=O)[C@H](CC(=O)O)NC(=O)[C@H](CO)NC(C)=O)C(C)C)C(=O)N[C@@H](Cc1ccc(Cl)cc1Cl)C(N)=O` (I: Ac-SDDLEFWCHVM[Phe(2,4-Cl2)]-NH2 / II: Ac-SDDLEFWCHVM[Phe(2,4-Cl2)]-NH2; disulfide I:8-II:8), the Ka at Frizzled-7 [1] amounted to 1.29 ×10⁵ /M/s. Moreover, the pKd at Frizzled-7 [2] was 7.65. On Frizzled-7 [3], this compound came in with a Kd of 2.89 ×10⁻³ /s.

At Frizzled-7 [1], `CSCC[C@H](NC(=O)[C@@H](NC(=O)[C@H](Cc1cnc[nH]1)NC(=O)[C@H](CSSC[C@H](NC(=O)[C@H](Cc1c[nH]c2ccccc12)NC(=O)[C@H](Cc1ccccc1)NC(=O)[C@H](CCC(=O)O)NC(=O)[C@H](CC(C)C)NC(=O)[C@H](CC(=O)O)NC(=O)[C@H](CC(=O)O)NC(=O)[C@H](CO)NC(C)=O)C(=O)N[C@@H](Cc1cnc[nH]1)C(=O)N[C@H](C(=O)N[C@@H](CCSC)C(=O)N[C@@H](Cc1ccc(Cl)c(Cl)c1)C(N)=O)C(C)C)NC(=O)[C@H](Cc1c[nH]c2ccccc12)NC(=O)[C@H](Cc1ccccc1)NC(=O)[C@H](CCC(=O)O)NC(=O)[C@H](CC(C)C)NC(=O)[C@H](CC(=O)O)NC(=O)[C@H](CC(=O)O)NC(=O)[C@H](CO)NC(C)=O)C(C)C)C(=O)N[C@@H](Cc1ccc(Cl)c(Cl)c1)C(N)=O` (I: Ac-SDDLEFWCHVM[Phe(3,4-Cl2)]-NH2 / II: Ac-SDDLEFWCHVM[Phe(3,4-Cl2)]-NH2; disulfide I:8-II:8) had a Ka of 1.4 ×10⁵ /M/s. The pKd on Frizzled-7 [2] is 8.19. The compound further returned a Kd on Frizzled-7 [3] of 0.9 ×10⁻³ /s.
